Molecules are shown by their SMILES.

Sequence of IDH1 R132H enzyme (O75874 whole entry R132H): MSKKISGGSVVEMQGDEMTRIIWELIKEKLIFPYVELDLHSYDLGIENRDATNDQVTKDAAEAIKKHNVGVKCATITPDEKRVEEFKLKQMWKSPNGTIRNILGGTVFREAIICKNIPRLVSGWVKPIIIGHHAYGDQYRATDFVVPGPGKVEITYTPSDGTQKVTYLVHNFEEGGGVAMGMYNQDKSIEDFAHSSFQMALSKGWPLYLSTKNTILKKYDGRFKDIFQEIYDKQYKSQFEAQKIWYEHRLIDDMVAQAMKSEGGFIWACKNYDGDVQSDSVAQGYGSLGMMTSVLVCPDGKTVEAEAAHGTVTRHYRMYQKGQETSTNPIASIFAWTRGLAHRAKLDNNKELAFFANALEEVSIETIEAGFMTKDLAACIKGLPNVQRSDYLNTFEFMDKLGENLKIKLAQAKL

The first assay concerns LN229 R132H cells overexpressing mutated isocitrate dehydrogenase (mIDH). Nature of the assay: Mutant IDH1 cellular assay (2-HG levels in medium). Type of assay: cell-based. As to conditions: 2-HG in medium of LN229 R132H cells, 24 hours incubation, fluorescence readout. How it is done: Mutant IDH1 Cellular Assay
Levels of (2R)-2-hydroxyglutarate (2HG) were measured in medium of a cell line with overexpression of mutated isocitrate dehydrogenase (mIDH) protein. mIDH catalyzes the NADPH-dependent reduction of alpha-ketoglutarate to 2-HG. Cells (LN229 R132H, Mohrenz et al., Apoptosis (2013) 18:1416-1425) were grown in DMEM containing 10% FCS. They were harvested by trypsin and seeded into 96-well plates. Cells were incubated overnight at 37° C. in 5% CO2. The next day test compounds were added to each cell well. The final concentration of DMSO was 0.1% and DMSO controls were included. The plates were then placed in an incubator for 24 hours.
2-HG was measured according to Balss et al. (Acta Neuropathol (2012) 124: 883-891). Briefly, HClO4 was added to each well and the plates were centrifuged. Aliquots are removed and incubated with hydroxyglutarate dehydrogenase (HGDH), diaphorase, NAD+, and resazurin. The conversion of resazurin to resorufin was detected by fluorescence spectroscopy at Ex 540 nm Em 600 nm. The increase in fluorescence is proportional to 2-HG production. IC50 values are determined by interpolation from plots of relative fluorescence vs inhibitor concentration.
For `C[C@@H]1C[C@H](n2c(Nc3ccc(OC(F)(F)F)cc3)nc3ccc(C(=O)N4CCOCC4)cc32)CC(C)(C)C1` (single isomer, unassigned; enantiomer a) [Example 2-16-1, morpholin-4-yl(2-{[4-(trifluoromethoxy)phenyl]amino}-1-[(cis)-3,3,5-trimethylcyclohexyl]-1H-benzimidazol-6-yl)methanone, enantiomer A], the IC50 (as a rule, the concentration at which inhibition is half-maximal) stood at 0.5 µM. In other words, the sub-micromolar range.

The assay is the same for the next values; noted with them: Homo sapiens, LN-229, 24 h, 2-HG in medium of LN229 R132H cells, 24 hours incubation, fluorescence readout.
In turn, `COC(=O)c1ccc2nc(Nc3ccc(OC(F)(F)F)cc3)n([C@H]3C[C@@H](C)CC(C)(C)C3)c2c1` (racemic) [Example 2-1, (±) methyl 2-{[4-(trifluoromethoxy)phenyl]amino}-1-[(cis)-3,3,5-trimethylcyclohexyl]-1H-benzimidazole-6-carboxylate] yielded an IC50 of 3.2 µM.

For `COC(=O)c1ccc2nc(Nc3ccc(OC(F)(F)F)cc3)n([C@H]3C[C@H](C)CC(C)(C)C3)c2c1` (racemic) [Example 2-2, (±) methyl 2-{[4-(trifluoromethoxy)phenyl]amino}-1-[(trans)-3,3,5-trimethylcyclohexyl]-1H-benzimidazole-6-carboxylate], half-maximal inhibition (IC50) required 10 µM.

For the molecule `COC(=O)c1ccc2nc(Nc3ccc(OC(F)(F)F)cc3)n([C@H]3C[C@@H](C)CC(C)(C)C3)c2c1` (single isomer, unassigned; enantiomer b) [Example 2-1-2, methyl 2-{[4-(trifluoromethoxy)phenyl]amino}-1-[(cis)-3,3,5-trimethylcyclohexyl]-1H-benzimidazole-6-carboxylate, enantiomer B], the IC50 turned out to be 5.7 µM.

In another assay the target is IDH1 R132H enzyme (Homo sapiens (Human), UniProt O75874, R132H). The assay is described as follows: Mutant IDH1 R132H biochemical assay. Also: 1.5 nM enzyme. As to conditions: NADPH consumption, luminescent readout, 250 μM α-KG, 1 μM NADPH, 32° C., 30 minutes, test range 0.002-10 μM. The procedure:
mIDH1 catalyzes the NADPH-dependent reduction of alpha-ketoglutarate (α-KG) to (2R)-2-hydroxyglutarate (2-HG). NADPH consumption was measured by luminescent readout.
The biochemical reactions were performed at 32° C. in 384-well plates using a reaction volume of 41 μl and the following assay buffer conditions: 50 mM Tris pH 7.5, 100 mM NaCl, 20 mM MgCl2, 0.05% BSA, 0.01% Brij, 1 μM NADPH, and 250 μM α-KG. […] Test compounds were used in a concentration range between 0.002 and 10 μM. The final DMSO concentration was 2.4%.
The reaction was incubated for 30 minutes, then 40 μl of detection mix (0.75 μg/ml Luciferase, 0.02 U/ml Oxidoreductase, 4 μg/ml FMN, 2 μl/ml Decanal/Ethanol, 50 mM Tris pH 7.5, 0.5% Glycerin, 0.01% Tween-20, 0.05% BSA) was added. Luminescence was measured on a luminescent reader (10 seconds measuring time, 1 second integration period, 30% sensitivity). The decrease in luminescence is proportional to mIDH1 activity. IC50 values are determined by interpolation from plots of relative luminescence versus inhibitor concentration.
As to `C[C@@H]1C[C@H](n2c(Nc3ccc(OC(F)(F)F)cc3)nc3ccc(C(=O)NC4CCCC4)cc32)CC(C)(C)C1` (racemic) [Example 2-5, (±) N-cyclopentyl-2-{[4-(trifluoromethoxy)phenyl]amino}-1-[(cis)-3,3,5-trimethylcyclohexyl]-1H-benzimidazole-6-carboxamide], the half-inhibitory concentration (IC50) is no less than 10 µM.

For `CNC(=O)c1ccc2nc(Nc3ccc(OC(F)(F)F)cc3)n([C@H]3C[C@@H](C)CC(C)(C)C3)c2c1` (racemic) [Example 2-8, (±) N-methyl-2-{[4-(trifluoromethoxy)phenyl]amino}-1-[(cis)-3,3,5-trimethylcyclohexyl]-1H-benzimidazole-6-carboxamide], it took 0.43 µM to reach half-maximal inhibition (IC50).

As for `COC(=O)CNC(=O)c1ccc2nc(Nc3ccc(OC(F)(F)F)cc3)n([C@H]3C[C@@H](C)CC(C)(C)C3)c2c1` (racemic) [Example 2-10, (±) methyl N-[(2-{[4-(trifluoromethoxy)phenyl]amino}-1-[(cis)-3,3,5-trimethylcyclohexyl]-1H-benzimidazol-6-yl)carbonyl]glycinate], half-maximal inhibition (IC50) was put at 6.6 µM.

On to `C[C@@H]1C[C@H](n2c(Nc3ccc(OC(F)(F)F)cc3)nc3ccc(C(=O)N(C)CC(=O)O)cc32)CC(C)(C)C1` (racemic) [Example 2-11, (±) N-methyl-N-[(2-{[4-(trifluoromethoxy)phenyl]amino}-1-[(cis)-3,3,5-trimethylcyclohexyl]-1H-benzimidazol-6-yl)carbonyl]glycine], for which the IC50 is 7.6 µM.

The molecule `C[C@@H]1C[C@H](n2c(Nc3ccc(OC(F)(F)F)cc3)nc3ccc(C(=O)NCCO)cc32)CC(C)(C)C1` (racemic) [Example 2-13, (±) N-(2-hydroxyethyl)-2-{[4-(trifluoromethoxy)phenyl]amino}-1-[(cis)-3,3,5-trimethylcyclohexyl]-1H-benzimidazole-6-carboxamide] displayed an IC50 of 2.2 µM. Against the preceding molecule, the IC50 is about 3.5-fold lower.

Take `COC(=O)CCNC(=O)c1ccc2nc(Nc3ccc(OC(F)(F)F)cc3)n([C@H]3C[C@@H](C)CC(C)(C)C3)c2c1` (racemic) [Example 2-14, (±) methyl N-[(2-{[4-(trifluoromethoxy)phenyl]amino}-1-[(cis)-3,3,5-trimethylcyclohexyl]-1H-benzimidazol-6-yl)carbonyl]-β-alaninate]: the half-maximal inhibitory concentration (IC50) was no less than 10 µM.

The molecule `C[C@@H]1C[C@H](n2c(Nc3ccc(OC(F)(F)F)cc3)nc3ccc(C(=O)NCCC(=O)O)cc32)CC(C)(C)C1` (racemic) [Example 2-15, (±) N-[(2-{[4-(trifluoromethoxy)phenyl]amino}-1-[(cis)-3,3,5-trimethylcyclohexyl]-1H-benzimidazol-6-yl)carbonyl]-β-alanine] displayed an IC50 of no less than 10 µM.

`C[C@@H]1C[C@H](n2c(Nc3ccc(OC(F)(F)F)cc3)nc3ccc(C(=O)NS(C)(=O)=O)cc32)CC(C)(C)C1` (racemic) [Example 2-19, (±) N-(methylsulfonyl)-2-{[4-(trifluoromethoxy)phenyl]amino}-1-[(cis)-3,3,5-trimethylcyclohexyl]-1H-benzimidazole-6-carboxamide]: the IC50 was no less than 10 µM.

Consider `C[C@@H]1C[C@H](n2c(Nc3ccc(OC(F)(F)F)cc3)nc3ccc(C(=O)NCc4ccc(F)cc4)cc32)CC(C)(C)C1` (racemic) [Example 2-21, (±) N-(4-fluorobenzyl)-2-{[4-(trifluoromethoxy)phenyl]amino}-1-[(cis)-3,3,5-trimethylcyclohexyl]-1H-benzimidazole-6-carboxamide], for which the half-inhibitory concentration (IC50) is no less than 10 µM.

Molecule `C[C@@H]1C[C@H](n2c(Nc3ccc(OC(F)(F)F)cc3)nc3ccc(C(=O)Nc4ccc(F)cc4)cc32)CC(C)(C)C1` (racemic) [Example 2-22, (±) N-(4-fluorophenyl)-2-{[4-(trifluoromethoxy)phenyl]amino}-1-[(cis)-3,3,5-trimethylcyclohexyl]-1H-benzimidazole-6-carboxamide] displayed a concentration for half-maximal inhibition (IC50) of no less than 10 µM.

Molecule `C[C@@H]1C[C@H](n2c(Nc3ccc(OC(F)(F)F)cc3)nc3ccc(C(=O)NC4CC4)cc32)CC(C)(C)C1` (racemic) [Example 2-23, (±) N-cyclopropyl-2-{[4-(trifluoromethoxy)phenyl]amino}-1-[(cis)-3,3,5-trimethylcyclohexyl]-1H-benzimidazole-6-carboxamide] came in with a half-maximal inhibitory concentration (IC50) of no less than 10 µM.

`CCOC(=O)CCN(C)C(=O)c1ccc2nc(Nc3ccc(OC(F)(F)F)cc3)n([C@H]3C[C@@H](C)CC(C)(C)C3)c2c1` (racemic) [Example 2-24, (±) ethyl N-methyl-N-[(2-{[4-(trifluoromethoxy)phenyl]amino}-1-[(cis)-3,3,5-trimethylcyclohexyl]-1H-benzimidazol-6-yl)carbonyl]-β-alaninate]: the IC50 was no less than 10 µM.

Molecule `C[C@H]1C[C@H](n2c(Nc3ccc(OC(F)(F)F)cc3)nc3ccc(C(=O)N(C)C)cc32)CC(C)(C)C1` (racemic) [Example 2-25, (±) N,N-dimethyl-2-{[4-(trifluoromethoxy)phenyl]amino}-1-[(trans)-3,3,5-trimethylcyclohexyl]-1H-benzimidazole-6-carboxamide] registered an IC50 of 0.47 µM.

`CNC(=O)c1ccc2nc(Nc3ccc(OC(F)(F)F)cc3)n([C@H]3C[C@@H](C)CC(C)(C)C3)c2c1` (single isomer, unassigned; enantiomer a) [Example 2-8-1, N-methyl-2-{[4-(trifluoromethoxy)phenyl]amino}-1-[(cis)-3,3,5-trimethylcyclohexyl]-1H-benzimidazole-6-carboxamide, enantiomer A] displayed a half-maximal inhibitory concentration (IC50) of 0.92 µM.

Consider `C[C@@H]1C[C@H](n2c(Nc3ccc(OC(F)(F)F)cc3)nc3ccc(C(=O)NC4CC4)cc32)CC(C)(C)C1` (single isomer, unassigned; enantiomer a) [Example 2-23-1, N-cyclopropyl-2-{[4-(trifluoromethoxy)phenyl]amino}-1-[(cis)-3,3,5-trimethylcyclohexyl]-1H-benzimidazole-6-carboxamide, enantiomer A], for which the IC50 was no less than 10 µM.

The molecule `CNC(=O)c1ccc2nc(Nc3ccc(OC(F)(F)F)cc3)n([C@H]3C[C@@H](C)CC(C)(C)C3)c2c1` (single isomer, unassigned; enantiomer b) [Example 2-8-2, N-methyl-2-{[4-(trifluoromethoxy)phenyl]amino}-1-[(cis)-3,3,5-trimethylcyclohexyl]-1H-benzimidazole-6-carboxamide, enantiomer B] returned an IC50 of 1.2 µM.

`C[C@@H]1C[C@H](n2c(Nc3ccc(OC(F)(F)F)cc3)nc3ccc(C(=O)NC4CC4)cc32)CC(C)(C)C1` (single isomer, unassigned; enantiomer b) [Example 2-23-2, N-cyclopropyl-2-{[4-(trifluoromethoxy)phenyl]amino}-1-[(cis)-3,3,5-trimethylcyclohexyl]-1H-benzimidazole-6-carboxamide, enantiomer B] came in with a half-inhibitory concentration (IC50) of no less than 10 µM.
